Converted amounts (≈) assume the structure as drawn.
Tests used:
Escherichia coli [1] = assay: Antimicrobial activity against oqxAB positive Escherichia coli C600 W245-T transconjugant by CLSI agar dilution method; assay type: functional
Escherichia coli [2] = assay: Antimicrobial activity against oqxAB positive Escherichia coli C600 SP8-T transconjugant by CLSI agar dilution method; assay type: functional
Escherichia coli [3] = assay: Antimicrobial activity against oqxAB positive Escherichia coli C600 D83-T transconjugant by CLSI agar dilution method; assay type: functional
Escherichia coli [4] = assay: Antimicrobial activity against oqxAB positive Escherichia coli C600 SW8-T transconjugant by CLSI agar dilution method; assay type: functional
Escherichia coli [5] = assay: Antimicrobial activity against oqxAB positive Escherichia coli C600 G262-T transconjugant by CLSI agar dilution method
Escherichia coli [6] = assay: Antimicrobial activity against oqxAB positive Escherichia coli C600 W322-T transconjugant by CLSI agar dilution method; assay type: functional
Escherichia coli [7] = assay: Antimicrobial activity against oqxAB positive Escherichia coli C600 X1B1-T transconjugant by CLSI agar dilution method
Escherichia coli [8] = assay: Antimicrobial activity against Escherichia coli C600 by CLSI agar dilution method
Escherichia coli [9] = assay: Antimicrobial activity against Escherichia coli C600 ST2-T transconjugant harboring oqxAB, qnrB6 and aac(6')-Ib-cr genes by CLSI agar dilution method; assay type: functional
Escherichia coli [10] = assay: Antimicrobial activity against oqxAB positive Escherichia coli C600 G062-T transconjugant by CLSI agar dilution method
Escherichia coli [11] = assay: Antimicrobial activity against oqxAB positive Escherichia coli C600 XT11-T transconjugant by CLSI agar dilution method
Escherichia coli [12] = assay: Antimicrobial activity against oqxAB positive Escherichia coli DH5[alpha] harboring pMD18-T::oqxAB by CLSI agar dilution method; assay type: functional
Escherichia coli [13] = assay: Antimicrobial activity against oqxAB positive Escherichia coli C600 W191-T transconjugant by CLSI agar dilution method; assay type: functional
Escherichia coli [14] = assay: Antimicrobial activity against oqxAB positive Escherichia coli C600 W281-T transconjugant by CLSI agar dilution method
Escherichia coli [15] = assay: Antimicrobial activity against Escherichia coli DH5[alpha] by CLSI agar dilution method
Escherichia coli [16] = assay: Antimicrobial activity against oqxAB positive Escherichia coli C600 G375-T transconjugant by CLSI agar dilution method; assay type: functional

Compound	MIC (Escherichia coli [1]) [µg/mL]	MIC (Escherichia coli [2]) [µg/mL]	MIC (Escherichia coli [3]) [µg/mL]	MIC (Escherichia coli [4]) [µg/mL]	MIC (Escherichia coli [5]) [µg/mL]	MIC (Escherichia coli [6]) [µg/mL]	MIC (Escherichia coli [7]) [µg/mL]	MIC (Escherichia coli [8]) [µg/mL]	MIC (Escherichia coli [9]) [µg/mL]	MIC (Escherichia coli [10]) [µg/mL]	MIC (Escherichia coli [11]) [µg/mL]	MIC (Escherichia coli [12]) [µg/mL]	MIC (Escherichia coli [13]) [µg/mL]	MIC (Escherichia coli [14]) [µg/mL]	MIC (Escherichia coli [15]) [µg/mL]	MIC (Escherichia coli [16]) [µg/mL]
CCn1cc(C(=O)O)c(=O)c2cc(F)c(N3CCNCC3)cc21 [NORFLOXACIN]	0.125 (≈ 0.391 µM)	0.125 (≈ 0.391 µM)	0.125 (≈ 0.391 µM)	0.5 (≈ 1.57 µM)	0.25 (≈ 0.783 µM)	0.25 (≈ 0.783 µM)	0.125 (≈ 0.391 µM)	0.03 (≈ 0.0939 µM)	4 (≈ 12.5 µM)	0.125 (≈ 0.391 µM)	0.25 (≈ 0.783 µM)	0.25 (≈ 0.783 µM)	0.125 (≈ 0.391 µM)	0.125 (≈ 0.391 µM)	0.03 (≈ 0.0939 µM)	0.25 (≈ 0.783 µM)
CCn1cc(C(=O)O)c(=O)c2ccc(C)nc21 [NALIDIXIC ACID]	16 (≈ 68.9 µM)	32 (≈ 138 µM)	8 (≈ 34.4 µM)	64 (≈ 276 µM)	16 (≈ 68.9 µM)	64 (≈ 276 µM)	16 (≈ 68.9 µM)	2 (≈ 8.61 µM)	256 (≈ 1100 µM)	32 (≈ 138 µM)	16 (≈ 68.9 µM)	32 (≈ 138 µM)	16 (≈ 68.9 µM)	16 (≈ 68.9 µM)	2 (≈ 8.61 µM)	64 (≈ 276 µM)
CN(C)[C@@H]1C(O)=C(C(N)=O)C(=O)[C@@]2(O)C(O)=C3C(=O)c4c(O)cccc4[C@@](C)(O)[C@H]3C[C@@H]12 [TETRACYCLINE]	1 (≈ 2.25 µM)	2 (≈ 4.5 µM)	4 (≈ 9 µM)	1 (≈ 2.25 µM)	32 (≈ 72 µM)	1 (≈ 2.25 µM)	32 (≈ 72 µM)	1 (≈ 2.25 µM)	2 (≈ 4.5 µM)	4 (≈ 9 µM)	64 (≈ 144 µM)	4 (≈ 9 µM)	64 (≈ 144 µM)	2 (≈ 4.5 µM)	2 (≈ 4.5 µM)	4 (≈ 9 µM)
O=C(N[C@H](CO)[C@H](O)c1ccc([N+](=O)[O-])cc1)C(Cl)Cl [CHLORAMPHENICOL]	64 (≈ 198 µM)	64 (≈ 198 µM)	32 (≈ 99 µM)	128 (≈ 396 µM)	128 (≈ 396 µM)	64 (≈ 198 µM)	128 (≈ 396 µM)	4 (≈ 12.4 µM)	32 (≈ 99 µM)	32 (≈ 99 µM)	128 (≈ 396 µM)	64 (≈ 198 µM)	128 (≈ 396 µM)	128 (≈ 396 µM)	4 (≈ 12.4 µM)	32 (≈ 99 µM)
CS(=O)(=O)c1ccc([C@@H](O)[C@@H](CF)NC(=O)C(Cl)Cl)cc1 [FLORFENICOL]	16 (≈ 44.7 µM)	16 (≈ 44.7 µM)	8 (≈ 22.3 µM)	16 (≈ 44.7 µM)	16 (≈ 44.7 µM)	16 (≈ 44.7 µM)	16 (≈ 44.7 µM)	2 (≈ 5.58 µM)	4 (≈ 11.2 µM)	16 (≈ 44.7 µM)	16 (≈ 44.7 µM)	16 (≈ 44.7 µM)	16 (≈ 44.7 µM)	16 (≈ 44.7 µM)	4 (≈ 11.2 µM)	16 (≈ 44.7 µM)
CC1(C)S[C@@H]2[C@H](NC(=O)[C@H](N)c3ccccc3)C(=O)N2[C@H]1C(=O)O [AMPICILLIN]	> 128	> 128	16 (≈ 45.8 µM)	> 128	8 (≈ 22.9 µM)	> 128	16 (≈ 45.8 µM)	4 (≈ 11.4 µM)	4 (≈ 11.4 µM)	> 128	> 128	–	> 128	> 128	> 128	16 (≈ 45.8 µM)
GENTAMICIN	0.25	0.25	0.25	32	–	0.125	–	–	0.25	–	–	0.125	1	–	–	0.25
CC(=O)c1c(C)[n+]([O-])c2ccccc2[n+]1[O-] [MEQUINDOX]	128 (≈ 587 µM)	256 (≈ 1170 µM)	128 (≈ 587 µM)	256 (≈ 1170 µM)	128 (≈ 587 µM)	256 (≈ 1170 µM)	64 (≈ 293 µM)	4 (≈ 18.3 µM)	128 (≈ 587 µM)	128 (≈ 587 µM)	128 (≈ 587 µM)	64 (≈ 293 µM)	128 (≈ 587 µM)	64 (≈ 293 µM)	4 (≈ 18.3 µM)	256 (≈ 1170 µM)
CCN1CCN(c2cc3c(cc2F)c(=O)c(C(=O)O)cn3C2CC2)CC1 [ENROFLOXACIN]	0.06 (≈ 0.167 µM)	0.06 (≈ 0.167 µM)	0.06 (≈ 0.167 µM)	0.125 (≈ 0.348 µM)	0.125 (≈ 0.348 µM)	0.125 (≈ 0.348 µM)	0.125 (≈ 0.348 µM)	0.016 (≈ 0.0445 µM)	2 (≈ 5.56 µM)	0.125 (≈ 0.348 µM)	0.06 (≈ 0.167 µM)	0.125 (≈ 0.348 µM)	0.125 (≈ 0.348 µM)	0.06 (≈ 0.167 µM)	0.016 (≈ 0.0445 µM)	0.125 (≈ 0.348 µM)
CN[C@@H]1[C@H](O[C@H]2[C@H](O[C@H]3[C@H](O)[C@@H](O)[C@H](N=C(N)N)[C@@H](O)[C@@H]3N=C(N)N)O[C@@H](C)[C@]2(O)C=O)O[C@@H](CO)[C@H](O)[C@H]1O [STREPTOMYCIN]	> 516	> 524	> 525	> 522	> 517	> 515	> 520	> 512	> 523	> 518	> 521	2 (≈ 3.44 µM)	> 514	> 513	4 (≈ 6.88 µM)	> 519
Cc1c(C(=O)NCCO)[n+]([O-])c2ccccc2[n+]1[O-] [OLAQUINDOX]	512 (≈ 1940 µM)	256 (≈ 972 µM)	256 (≈ 972 µM)	512 (≈ 1940 µM)	256 (≈ 972 µM)	512 (≈ 1940 µM)	256 (≈ 972 µM)	8 (≈ 30.4 µM)	512 (≈ 1940 µM)	256 (≈ 972 µM)	256 (≈ 972 µM)	128 (≈ 486 µM)	256 (≈ 972 µM)	128 (≈ 486 µM)	8 (≈ 30.4 µM)	256 (≈ 972 µM)

— ChEMBL document CHEMBL1687783, “Prevalence and dissemination of oqxAB in Escherichia coli isolates from animals, farmworkers, and the environment” (2010)
